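Five concentrations, 48 hours, 96-well plates. Here, GI50 denotes the concentration required for 50% inhibition of growth.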 Active and inactive are the calls of the source. Rule as the data show it: active = GI50 up to about 1.1 µM and inactive = higher. Where a SMILES comes first, the peptide text is derived from it. The star is where a group is joined. Boc = CC(C)(C)OC(=O)*; OBn = c1ccc(CO*)cc1
Key:
Assay in all cases: NCI anticancer screen, dose series, 48 h
786-0 = test system: 786-0
CAKI-1 = test system: CAKI-1
DU-145 = test system: DU-145
HCT-15 = test system: HCT-15
HL-60 = test system: HL-60
HOP-92 = test system: HOP-92
HT-29 = test system: HT-29
IGROV-1 = test system: IGROV-1
LOX IMVI = test system: LOX IMVI
MDA-N = test system: MDA-N
MOLT-4 = test system: MOLT-4
NCI/ADR-RES = test system: NCI/ADR-RES
RXF 393 = test system: RXF 393
T47D = test system: T47D
UACC-62 = test system: UACC-62
COLO 205 = test system: COLO 205
HCC 2998 = test system: HCC 2998
NCI-H226 = test system: NCI-H226
TK-10 = test system: TK-10

SMILES | GI50 (786-0) | GI50 (CAKI-1) | GI50 (DU-145) | GI50 (HCT-15) [µM] | GI50 (HL-60) | GI50 (HOP-92) | GI50 (HT-29) | GI50 (IGROV-1) | GI50 (LOX IMVI) | GI50 (MDA-N) | GI50 (MOLT-4) | GI50 (NCI/ADR-RES) | GI50 (RXF 393) | GI50 (T47D) | GI50 (UACC-62) | GI50 (COLO 205) | GI50 (HCC 2998) | GI50 (NCI-H226) | GI50 (TK-10)
Cc1cnoc1NS(=O)(=O)c1ccc(Nc2nnc(/C=C/c3c(O)ccc4ccccc34)c(=O)n2N)cc1 | 35.1 µM (inactive) | 27.5 µM (inactive) | 43.8 µM (inactive) | 6.37 | 0.74 µM (active) | 41.3 µM (inactive) | 58.6 µM (inactive) | 12.8 µM (inactive) | 19.1 µM (inactive) | 25.4 µM (inactive) | 0.658 µM (active) | 11.5 µM (inactive) | 24 µM (inactive) | 20.1 µM (inactive) | 24.5 µM (inactive) |  |  |  | 
CC(C(N)=O)N(C)C(=O)c1cnc2ccccc2c1 (centres undefined) | > 100 µM (inactive) | > 100 µM (inactive) | > 100 µM (inactive) | > 100 | > 100 µM (inactive) | > 100 µM (inactive) | > 100 µM (inactive) | > 100 µM (inactive) |  | > 100 µM (inactive) | > 100 µM (inactive) | > 100 µM (inactive) | > 100 µM (inactive) | > 100 µM (inactive) | > 100 µM (inactive) | > 100 µM (inactive) | > 100 µM (inactive) | > 100 µM (inactive) | > 100 µM (inactive)
CC(C)CC(NC(=O)OC(C)(C)C)C(=O)N1CCCC1C(=O)OCc1ccccc1 (stereo not drawn) (Boc-Leu-Pro-OBn; configuration not given here) | > 100 µM (inactive) | > 100 µM (inactive) | > 100 µM (inactive) | 63.4 |  | > 100 µM (inactive) | 41.4 µM (inactive) | > 100 µM (inactive) | 40.4 µM (inactive) | > 100 µM (inactive) |  | > 100 µM (inactive) | > 100 µM (inactive) | > 100 µM (inactive) | > 100 µM (inactive) | > 100 µM (inactive) |  | > 100 µM (inactive) | > 100 µM (inactive)
Cc1ccc2c(c1)C(=O)N1CCC[C@H]1C=N2 | 27.1 µM (inactive) | 15.6 µM (inactive) | 7.78 µM (inactive) | 28.5 |  | 25.5 µM (inactive) | 15.4 µM (inactive) | 14.3 µM (inactive) | 23.6 µM (inactive) | 19.2 µM (inactive) | 18.8 µM (inactive) | 21.1 µM (inactive) | 4.21 µM (inactive) | 18.4 µM (inactive) | 16.6 µM (inactive) | 17.6 µM (inactive) | 19.6 µM (inactive) |  | 20.5 µM (inactive)
O=c1[nH]c(-n2[nH]c3c(c2=O)CCCC3)nc(O)c1-c1ccccc1 | > 100 µM (inactive) | > 100 µM (inactive) | > 100 µM (inactive) | > 100 | > 100 µM (inactive) | > 100 µM (inactive) | > 100 µM (inactive) | > 100 µM (inactive) |  | > 100 µM (inactive) | > 100 µM (inactive) | > 100 µM (inactive) | > 100 µM (inactive) | > 100 µM (inactive) | > 100 µM (inactive) | > 100 µM (inactive) |  | > 100 µM (inactive) | > 100 µM (inactive)
O=c1[nH]c(=O)n(C2CC(O)C(CO)O2)cc1C1=NC1 (centres undefined) | > 100 µM (inactive) |  | > 100 µM (inactive) | > 100 |  | > 100 µM (inactive) | > 100 µM (inactive) | > 100 µM (inactive) |  | > 100 µM (inactive) | > 100 µM (inactive) | > 100 µM (inactive) | > 100 µM (inactive) | 35.2 µM (inactive) | > 100 µM (inactive) | > 100 µM (inactive) | > 100 µM (inactive) | > 100 µM (inactive) | > 100 µM (inactive)
Cc1cc(C)c2c(=O)n(CC(O)CN3CCN(CCOCCO)CC3)sc2n1 (centres undefined) | 16.9 µM (inactive) | > 100 µM (inactive) | 30.2 µM (inactive) | 42.1 | 20.5 µM (inactive) | 19.4 µM (inactive) | 19.1 µM (inactive) | 43.9 µM (inactive) | 18.8 µM (inactive) | 15.6 µM (inactive) | 24.5 µM (inactive) | > 100 µM (inactive) | 4.68 µM (inactive) | 19.1 µM (inactive) | 18.7 µM (inactive) | 17.7 µM (inactive) |  | > 100 µM (inactive) | 17.5 µM (inactive)
O=C(O)Cc1c(O)ccc2ccccc12 | > 100 µM (inactive) | > 100 µM (inactive) | > 100 µM (inactive) | > 100 |  | > 100 µM (inactive) | > 100 µM (inactive) | > 100 µM (inactive) | > 100 µM (inactive) | > 100 µM (inactive) | > 100 µM (inactive) | > 100 µM (inactive) | > 100 µM (inactive) | > 100 µM (inactive) | > 100 µM (inactive) | > 100 µM (inactive) |  | > 100 µM (inactive) | > 100 µM (inactive)
CC(=O)O[C@H]1C(=O)[C@@]2(C)C(C(OC(=O)c3ccccc3)[C@]3(O)CC(OC(=O)C(O)C(NC(=O)c4ccccc4)c4ccc(F)cc4)C(C)=C1C3(C)C)[C@]1(OC(C)=O)CO[C@@H]1C[C@@H]2O (some centres undefined) | 0.00152 µM (active) | 0.0942 µM (active) | 0.00126 µM (active) | 0.0129 | < 0.001 µM (active) | 3.43 µM (inactive) | < 0.001 µM (active) | 0.00365 µM (active) | 0.00129 µM (active) | < 0.001 µM (active) | 0.00359 µM (active) | 0.647 µM (active) | < 0.001 µM (active) | 0.00966 µM (active) | 0.00138 µM (active) | < 0.001 µM (active) | 0.00124 µM (active) |  | 0.0296 µM (active)
O=C1Nc2ccccc2/C1=N\c1cccc2ncccc12 | > 100 µM (inactive) | > 100 µM (inactive) | > 100 µM (inactive) | 68.1 |  | 42.5 µM (inactive) | 58.3 µM (inactive) | 51.1 µM (inactive) | 27.4 µM (inactive) | 34.5 µM (inactive) | 30 µM (inactive) | > 100 µM (inactive) | > 100 µM (inactive) | > 100 µM (inactive) | > 100 µM (inactive) | > 100 µM (inactive) |  | > 100 µM (inactive) | > 100 µM (inactive)
O=C(O)CCc1c2ccc(=O)c(O)c-2oc2c(O)c(O)ccc12 | 19.4 µM (inactive) | > 100 µM (inactive) | > 100 µM (inactive) | 79.4 | 44.3 µM (inactive) | > 100 µM (inactive) | > 100 µM (inactive) | > 100 µM (inactive) | 20.1 µM (inactive) | 16.3 µM (inactive) | 23.3 µM (inactive) | > 100 µM (inactive) | > 100 µM (inactive) | > 100 µM (inactive) | > 100 µM (inactive) | > 100 µM (inactive) | 8.55 µM (inactive) |  | > 100 µM (inactive)
N#C/C(=C/NC(N)=S)C(N)=O | > 100 µM (inactive) | > 100 µM (inactive) | > 100 µM (inactive) | > 100 | > 100 µM (inactive) | > 100 µM (inactive) | > 100 µM (inactive) | > 100 µM (inactive) | > 100 µM (inactive) | > 100 µM (inactive) |  | > 100 µM (inactive) | > 100 µM (inactive) | > 100 µM (inactive) |  | > 100 µM (inactive) | > 100 µM (inactive) | > 100 µM (inactive) | > 100 µM (inactive)

Reference: ChEMBL document CHEMBL1201862, “PubChem BioAssay data set” (2004)
